Test results: patent publication US10682311B2, “Intranasal dexmedetomidine compositions and methods of use thereof” (BAUDAX BIO, INC., priority 2011, dated 2020)

Assay: clinical
Details: human, in vivo, 35 ug
Text: This was a Phase 1, open-label, two period, repeated dose study in healthy subjects to investigate the safety, tolerability, and pharmacokinetics of intranasal dexmedetomidine. A total of 12 subjects (6 male and 6 female) were planned and enrolled. Healthy subjects between the ages of 18 and 50 years, inclusive, were screened for participation at one study site in the United States within 28 days before study drug administration. Medical history, physical examination, baseline laboratory testing, 12 lead electrocardiogram (ECG), pregnancy testing, vital sign measurements, and informed consent were completed during the screening visit.
During Period 1, subjects received two doses of study medication, separated by six hours. During Period 2, study participants received seven doses of study medication administered at six hour intervals. Study Periods were separated by not less than 24 hours between the last dose in Period 1 and the first dose in Period 2.
Serial blood samples were collected at defined intervals during each study period in order to evaluate the pharmacokinetic properties of intranasally administered dexmedetomidine, and its metabolite. Whole blood was collected in 6 mL evacuated collection tubes treated with K2EDTA.
Plasma samples were to be collected within ±2 minutes of the scheduled post-dose time through 60 minutes after dosing, samples collected 75 minutes to 6 hours after dosing were able to be collected within ±5 minutes, and samples collected at and beyond 12 hours after dosing were able to be collected within ±15 minutes of scheduled post-dose time. Actual times were to be recorded for all events, and any deviation outside the specified ranges were required to be clearly documented in the subject's study records.
Immediately after the collection of each sample, the collection tube was to be gently inverted and then placed in wet ice. Within 30 minutes of withdrawal, the tubes were centrifuged at about 2,000×gravity for 10-15 minutes to separate the cells from the plasma. No aids for separation were to be used. Two aliquots (≥0.5 mL each) of plasma were transferred from each sample with clean pipettes and placed in 2 polypropylene storage tubes in equal volumes. The storage tubes were labeled with the following information: protocol number, subject number, study day and relative time of sample (e.g., Period 1, Dose 1, 10 Minutes after dosing), and biologic matrix to be analyzed (e.g., plasma). Within 60 minutes of the collection time, the storage tubes were to be placed into a freezer at −20° C. or below; they remained in the freezer until shipment for analysis.
For pharmacokinetic analyses in Period 1, up to 12 blood samples were collected from each subject prior to and following administration of each study dose. These were collected at predose (Time 0) and at the following approximate times after each dose of study medication: 10, 20, 30, 45, 60, and 90 minutes and 2 and 4 hours; additional blood samples were collected at 6, 12 and 18 hours after Dose 2. In Period 2, up to 13 blood samples were collected from each subject prior to and following administration of Dose 1 and Dose 7. These were collected at predose (Time 0) and at the following approximate times after dosing with study medication: 10, 20, 30, 45, 60, and 90 minutes and 2 and 4 hours; additional blood samples were collected at 6, 12, 18 and 24 hours after Dose 7. Blood samples for Dose 2 through Dose 6 were collected at predose (Time 0) only. […]

- AUC(0-t) (both, AUC0-6): 0.39 ng·h/mL
- AUC(0-t) (both, AUClast): 0.38 ng·h/mL
- Cmax (both, Cmax): 0.09 ng/mL
- Tmax (both, Tmax): 1.26 h
- accumulation (AUC for Dose 1 compared to Dose 7) (inhaled or intranasal): little evidence of accumulation
SMILES: Cc1cccc([C@H](C)c2cnc[nH]2)c1C [Dexmedetomidine, 5-[(1S)-1-(2,3-dimethylphenyl)ethyl]-1H-imidazole]
